Results taken from PMC8880313, “Discovery of Novel Andrographolide Derivatives as Antiviral Inhibitors against Human Enterovirus A71” (Pharmaceuticals, 2022).

Tests used:
[1] = test system: EV-A71 proteins, VP2 and VP0; experiment: SDS-PAGE and Western blot of EV-A71 proteins; type: cell-based, human enterovirus A71 (EV-A71) strain 41; details: 6 h
Procedure: Since ZAF-47 possibly targets EV-A71 post-entry stages, we were interested in looking at the effect of ZAF-47 on EV-A71 protein expression. To do so, we first infected RD cells with EV-A71. We then treated the infected cells with different concentration of ZAF-47 for 6 h and collected the cell lysates for SDE-PAGE and Western blot. […] Since ZAF-47 acts on the post-entry stages and reduces EV-A71 protein expression, we hypothesized that ZAF-47 could be inhibiting RNA replication or protein translation, or possibly both, resulting in reduced viral protein expression.
Seeded 24-well plates, with 1.5 × 10^5 RD cells per well, were incubated overnight at 37 °C with 5% CO2. After which, the cells were subjected to EV-A71 infection (100 µL per well, MOI = 1) for 1 h. Reduced serum DMEM was used for mock-infection. The infected cells were then rinsed with PBS twice before treatment with 0.1% DMSO or ZAF-47 at various concentrations for 6 h at 37 °C with 5% CO2. After 6 h of drug treatment, cells were lysed with 100 µL of 1x Laemmli buffer and cell lysate was stored at −80 °C.
The cell lysate samples were subsequently boiled for 10 min at 100 °C and loaded on to a 10% acrylamide gel. SDS-PAGE was run for 2.5 h at 100V to separate the proteins. Bio Basic 10–250 kDa Protein Ladder BZ0011G (Bio Basic, Markham, Canada) was also loaded as a molecular-weight size marker. […]

EV-A71 IRES = experiment: Bicistronic luciferase reporter assay; type: cell-based, human enterovirus A71 (EV-A71) strain 41; details: RD cells, various concentrations, 12 h
Procedure: To validate this finding, we also transfected RD cells with a bicistronic reporter construct which had been established and validated previously. Similarly, the transfected cells were treated with ZAF-47 at various concentrations and then incubated for 12 h before luminescence detection. The construct comprises a human cytomegalovirus (CMV) promoter with a downstream Renilla luciferase (R Luc) gene and an EV-A71 strain 41 IRES with a downstream firefly luciferase (F Luc) gene (Figure 4f). This means that R Luc can be expressed by the CMV promoter via cap-dependent translation while F Luc can be expressed by the EV-A71 IRES via cap-independent translation. An accurate determination of IRES activity would be to use the ratio of F Luc luminescence reading to R Luc luminescence reading (F Luc/R Luc). The transfected cells were also treated with negative control, DMSO and positive control, apigenin, an EV-A71 IRES inhibitor [53].
Seeded 96-well white plates (Corning), with 2 × 10^4 RD cells per well, were incubated overnight at 37 °C with 5% CO2. After which, a bicstronic luciferase reporter construct was used to transfect the cells, as described in our previous work, for 12 h at 37 °C with 5% CO2. […]

CC(=O)OC[C@]1(C)C(=O)CC[C@@]2(C)C(C/C=C3/C(=O)OC[C@@H]3Oc3cccc4cccnc34)=C(C)CC[C@@H]21 [ZAF-47, (14β)-(8′-Quinolinoxy)-3-ketone-9-dehydro-17-hydro-19-acetoxy–andrographolide]
VP0 band intensity reduction in comparison to the control ([1]; 5 µM, normalized with β-actin): 35 fold
VP2 band ([1]; different concentrations): not with any ZAF-47 treatment
IRES activity (F Luc/R Luc) (EV-A71 IRES): did not reduce IRES activity
